The term inhibition denotes the drop in the measured response relative to a control, in per cent.

Inhibition data for 13 compounds are collected here from patent US20130150340A1, “6-(4-Hydroxy-phenyl)-1H-pyrazolo[3,4-b]pyridine-4-carboxylic acid amide derivatives as kinase inhibitors” (SANOFI, priority 2011, published 2013).

This experiment addresses T1, human full-length recombinant PKC βII (Homo sapiens, UniProt P05771).
T1 construct: Active human full-length recombinant PKC βII; purchased Invitrogen GmbH, Darmstadt, Germany
Briefly: Determination of PKC βII inhibition (Caliper mobility-shift kinase assay). The note with it: example compounds at a final concentration of 1.14 μM (±0.15 μM); 60 min incubation at 32° C. It counts as biochemical. The protocol:
Determination of PKC 3H Inhibition
PKC βII inhibition was determined according to the following protocol:
Active human full-length recombinant PKC βII and the peptide substrate, Fluorescein-RFARKGSLRQKNV, were purchased from Invitrogen GmbH, Darmstadt, Germany. Adenosine-5′-triphosphate (ATP), bovine serum albumine (BSA), dimethylsulphoxide (DMSO), 4-(2-hydroxyethyl)piperazine-1-ethanesulfonic acid (Hepes), Triton X-100, 1,2-Dioleoyl-sn-glycerol (DAG), L-α-Phosphatidyl-L-serine (PS), calcium chloride (CaCl2), and Pluronic F-68 were purchased from Sigma-Aldrich, Munich, Germany. Magnesium chloride, 1 M sodium hydroxide solution, 1M hydrochloric acid solution and EDTA were obtained from Merck Biosciences, Darmstadt, Germany.
Test compounds were diluted to three times the test concentration in buffer 1 (30 mM Hepes-NaOH, pH 7.4, 0.01% Pluronic F-68 and 3% (v/v) DMSO). The PKC βII enzyme was diluted to a concentration of 30 ng/ml in buffer 2 (30 mM Hepes-NaOH, pH 7.4, 15 mM MgCl2, 150 μM CaCl2, 150 μg/ml PS, 60 μg/ml DAG, and 0.045% (w/v) Triton X-100). The peptide substrate and ATP were diluted to concentrations of 3 μM and 120 μM, respectively, in buffer 2. Two μl of the compound solution were mixed with 2 μl of the diluted enzyme in a 384-well small volume microtiter plate (Greiner, Bio-One, Frickenhausen, Germany), and the kinase reaction was initiated by addition of 2 μl of the solution containing peptide substrate and ATP. After 60 min incubation at 32° C., the reaction was stopped by addition of 20 μl of a solution containing 130 mM Hepes-NaOH, pH 7.4, 0.0195% (v/v) Brij-35, 6.5 mM EDTA, 0.13% chip coating reagent 3 (Caliper Lifescience Inc, Hopkinton, Mass.) and 6.5% (v/v) DMSO. Phosphorylation of the substrate peptide was then detected on a Caliper 3000 instrument essentially as described by Pommereau et al (J. Biomol. Screening 2004, 9(5), […]), Separation conditions were as follows: Pressure −0.8 psi, upstream voltage −3000 V, downstream voltage −800 V. Positive controls (buffer 1 instead of compound) and negative controls (buffer 1 instead of compound and buffer 2 instead of kinase solution) were run in parallel on each plate. Fractional turnover (R) was determined as the height of the peak of the phosphorylated peptide product divided by the sum of the unphosphorylated substrate and phosphorylated product peak heights. Percent-inhibition values for the test compounds were determined using the formula
% Inhibition=100*(1−(Rcompound−Rnegative control)/(Rpositive control−Rnegative control).

T1 sequence (P05771 1-673 isoform P05771-2): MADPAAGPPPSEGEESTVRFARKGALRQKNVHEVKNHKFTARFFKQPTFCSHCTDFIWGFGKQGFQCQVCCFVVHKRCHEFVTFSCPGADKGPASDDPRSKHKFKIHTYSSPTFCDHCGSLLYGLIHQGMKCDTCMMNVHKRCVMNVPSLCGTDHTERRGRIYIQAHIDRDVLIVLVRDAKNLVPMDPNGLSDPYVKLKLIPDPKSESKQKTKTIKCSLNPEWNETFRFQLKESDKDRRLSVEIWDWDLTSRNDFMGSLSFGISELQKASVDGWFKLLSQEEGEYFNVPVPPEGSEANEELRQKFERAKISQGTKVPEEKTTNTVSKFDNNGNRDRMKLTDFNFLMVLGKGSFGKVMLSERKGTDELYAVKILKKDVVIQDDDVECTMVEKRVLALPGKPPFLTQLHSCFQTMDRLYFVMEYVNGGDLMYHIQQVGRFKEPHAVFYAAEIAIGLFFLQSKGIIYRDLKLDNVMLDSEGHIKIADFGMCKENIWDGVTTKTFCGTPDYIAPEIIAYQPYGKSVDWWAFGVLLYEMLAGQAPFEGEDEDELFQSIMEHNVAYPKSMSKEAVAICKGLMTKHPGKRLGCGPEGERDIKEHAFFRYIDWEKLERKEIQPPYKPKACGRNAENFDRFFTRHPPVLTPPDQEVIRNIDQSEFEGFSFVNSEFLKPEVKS

Take `O=C(c1cccnc1)N1CCN(C(=O)c2cc(-c3ccc(O)cc3)nc3[nH]ncc23)CC1` [Example 74, [6-(4-Hydroxy-phenyl)-1H-pyrazolo[3,4-b]pyridin-4-yl]-[4-(pyridine-3-carbonyl)-piperazin-1-yl]-methanone]: the inhibition at 1.14 µM was found to be 35%.

Consider `O=C(N[C@@H]1CCCNC1)c1cc(-c2ccc(O)cc2)nc2[nH]ncc12` [Example 19, 6-(4-Hydroxy-phenyl)-1H-pyrazolo[3,4-b]pyridine-4-carboxylic acid (R)-piperidin-3-ylamide], for which the inhibition at 1.14 µM amounted to 83%.

As for `CC(=O)N1CCN(C(=O)c2cc(-c3ccc(O)cc3)nc3[nH]ncc23)CC1` [Example 53, 1-{4-[6-(4-Hydroxy-phenyl)-1H-pyrazolo[3,4-b]pyridine-4-carbonyl]-piperazin-1-yl}-ethanone], the inhibition at 1.14 µM was found to be 46%.

For `O=C(N[C@@H]1CN2CCC1CC2)c1cc(-c2ccc(O)cc2)nc2[nH]ncc12` [Example 40, 6-(4-Hydroxy-phenyl)-1H-pyrazolo[3,4-b]pyridine-4-carboxylic acid-(S)-(1-Aza-bicyclo[2.2.2]oct-3-yl)amide], the inhibition at 1.14 µM was 71%.

For `N[C@H]1CCN(C(=O)c2cc(-c3ccc(O)cc3)nc3[nH]ncc23)C1` [Example 17, ((S)-3-Amino-pyrrolidin-1-yl)-[6-(4-hydroxy-phenyl)-1H-pyrazolo[3,4-b]pyridin-4-yl]-methanone], the inhibition at 1.14 µM amounted to 64%.

In the case of `N[C@H]1CC[C@H](CNC(=O)c2cc(-c3ccc(O)cc3)nc3[nH]ncc23)CC1` [Example 11, 6-(4-Hydroxy-phenyl)-1H-pyrazolo[3,4-b]pyridine-4-carboxylic acid (trans-4-amino-cyclohexylmethyl)-amide], the inhibition at 1.14 µM was determined as 87%.

Regarding `NC1CCCN(C(=O)c2cc(-c3ccc(O)cc3)nc3[nH]ncc23)C1` (stereo not shown) [Example 3, (3-Amino-piperidin-1-yl)-[6-(4-hydroxy-phenyl)-1H-pyrazolo[3,4-b]pyridin-4-yl]-methanone], the inhibition at 1.14 µM is 95%.

For the compound `CO[C@H]1CNC[C@@H]1NC(=O)c1cc(-c2ccc(O)cc2)nc2[nH]ncc12` (racemic) [Example 29, 6-(4-Hydroxy-phenyl)-1H-pyrazolo[3,4-b]pyridine-4-carboxylic acid (trans-4-methoxy-pyrrolidin-3-yl)-amide], the inhibition at 1.14 µM was 87%.

On to `N[C@H]1C[C@@H]1NC(=O)c1cc(-c2ccc(O)cc2)nc2[nH]ncc12` (racemic) [Example 51, 6-(4-Hydroxy-phenyl)-1H-pyrazolo[3,4-b]pyridine-4-carboxylic acid (trans-2-amino-cyclopropyl)-amide], for which the inhibition at 1.14 µM came to 55%.

As for `CC(C)C1CN(C(=O)c2cc(-c3ccc(O)cc3F)nc3[nH]ncc23)C(C)(C)CN1` (stereo not shown) [Example 15, [6-(2-Fluoro-4-hydroxy-phenyl)-1H-pyrazolo[3,4-b]pyridin-4-yl]-(5-isopropyl-2,2-dimethyl-piperazin-1-yl)-methanone], the inhibition at 1.14 µM came to 94%.

For the compound `CC1(C)CNCCN1C(=O)c1cc(-c2ccc(O)cc2)nc2[nH]ncc12` [Example 10, (2,2-Dimethyl-piperazin-1-yl)-[6-(4-hydroxy-phenyl)-1H-pyrazolo[3,4-b]pyridin-4-yl]-methanone], the inhibition at 1.14 µM was found to be 96%.

Turning to `O=C(NC1CCN(C2CCCCC2)CC1)c1cc(-c2ccc(O)cc2)nc2[nH]ncc12` [Example 67, 6-(4-Hydroxy-phenyl)-1H-pyrazolo[3,4-b]pyridine-4-carboxylic acid (1-cyclohexyl-piperidin-4-yl)-amide], the inhibition at 1.14 µM turned out to be 64%.

As to `NC1CCN(C(=O)c2cc(-c3ccc(O)cc3)nc3[nH]ncc23)CC1` [Example 38, (4-Amino-piperidin-1-yl)-[6-(4-hydroxy-phenyl)-1H-pyrazolo[3,4-b]pyridin-4-yl]-methanone], the inhibition at 1.14 µM is 60%.
